In patent US20240246902A1, “PRODRUGS OF 6-DIAZO-5-OXO-L-NORLEUCINE” (THE JOHNS HOPKINS UNIVERSITY, priority 2021, published 2024):

What was measured:
[1] = Plasma stability, pig plasma; type: in vitro ADME; conditions: PP = Pig Plasma
[2] = Plasma stability, rat plasma; type: in vitro ADME; conditions: RP = Rat Plasma
[3] = Metabolic stability in swine liver tissue homogenate; type: in vitro ADME; conditions: prodrug 20 μM, 37° C.
In short: (§1)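 Freshly collected swine jejunum or liver was sonicated in 9 volumes of 0.1 M potassium phosphate buffer on ice. Prodrugs at 20 μM (0.2% DMSO, triplicate) were incubated at 37° C for 0, 30 and 60 min. Samples were quenched in methanol with losartan internal standard, and prodrug disappearance was followed by LC-MS/MS using analyte/IS peak area ratios.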

[4] = Plasma stability, plasma from CES1KO mice; conditions: CES1KO = Mouse Plasma from CES1KO mice
[5] = Metabolic stability in swine jejunum (gut) tissue homogenate; type: in vitro ADME; conditions: prodrug 20 μM, 37° C.
In short: as §1

CC(=O)N[C@@H](CCC(=O)C=[N+]=[N-])C(=O)OC(C)C [Compound 5a, Isopropyl (S)-2-acetamido-6-diazo-5-oxohexanoate]
Plasma Stability (% remaining at 60 min) [1]: 105 ± 1 (PP) % | Plasma Stability (% remaining at 60 min) [2]: 0 ± 0 (RP) % | Liver stability (% remaining at 60 min) [3]: 23 ± 0% | Plasma Stability (% remaining at 60 min) [4]: 89 ± 2 (ces1KO) % | Gut Stability (% remaining at 60 min) [5]: 76 ± 0%
